Laboratory results: PubChem BioAssay AID248 (DTP/NCI, 2004)
Values joined by “and” are separate entries in the source; they are usually repeats but may differ in a detail not shown here. Equal values may be shown once. Inconclusive results and toxic doses are left out. Cut-off read from the data, not from the text of the source: active = T/C of 150% or more; inactive = T/C below 125%.

Tested on: L1210 leukemia ip in BDF1 mice, survival T/C
Assay: NCI In Vivo Anticancer Drug Screen. Data for tumor model L1210 Leukemia (intraperitoneal) in B6D2F1 (BDF1) mice
Settings: higher = longer survival
Method in brief: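 Antitumor effect is assessed in tumor-bearing animals. Survival in the compound arm is compared with a vehicle-dosed control arm and expressed as their quotient.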

[1] = endpoint: mean survival time, dose: 100.0 mg/kg/injection, schedule: Q01DX001 (ip), vehicle: carboxymethylcellulose (CMC)
[2] = endpoint: mean survival time, dose: 200.0 mg/kg/injection, schedule: Q01DX001 (ip), vehicle: carboxymethylcellulose (CMC)
[3] = endpoint: mean survival time, dose: 400.0 mg/kg/injection, schedule: Q01DX001 (ip), vehicle: carboxymethylcellulose (CMC)
[4] = endpoint: mean survival time, dose: 100.0 mg/kg/injection, schedule: Q04DX003 (ip), vehicle: saline with Tween-80
[5] = endpoint: mean survival time, dose: 200.0 mg/kg/injection, schedule: Q04DX003 (ip), vehicle: saline with Tween-80
[6] = endpoint: mean survival time, dose: 400.0 mg/kg/injection, schedule: Q04DX003 (ip), vehicle: saline with Tween-80
[7] = endpoint: mean survival time, dose: 100.0 mg/kg/injection, schedule: Q01DX001 (ip), vehicle: Klucel (hydroxypropylcellulose) (HPC)
[8] = endpoint: mean survival time, dose: 100.0 mg/kg/injection, schedule: Q01DX001 (ip), vehicle: saline
[9] = endpoint: mean survival time, dose: 200.0 mg/kg/injection, schedule: Q01DX001 (ip), vehicle: saline
[10] = endpoint: mean survival time, dose: 400.0 mg/kg/injection, schedule: Q01DX001 (ip), vehicle: saline
[11] = endpoint: mean survival time, dose: 100.0 mg/kg/injection, schedule: Q04DX003 (ip), vehicle: Klucel (hydroxypropylcellulose) (HPC)
[12] = endpoint: mean survival time, dose: 200.0 mg/kg/injection, schedule: Q04DX003 (ip), vehicle: Klucel (hydroxypropylcellulose) (HPC)
[13] = endpoint: mean survival time, dose: 100.0 mg/kg/injection, schedule: Q01DX009 (ip), vehicle: saline with Tween-80
[14] = endpoint: mean survival time, dose: 200.0 mg/kg/injection, schedule: Q01DX009 (ip), vehicle: saline with Tween-80
[15] = endpoint: mean survival time, dose: 400.0 mg/kg/injection, schedule: Q01DX009 (ip), vehicle: saline with Tween-80
[16] = endpoint: mean survival time, dose: 50.0 mg/kg/injection, schedule: Q01DX001 (ip), vehicle: saline

Measured: T/C

CCOC(=O)c1cc(OCC)c2c(ccc3ccccc32)n1
inactive: [1] 97 % of control | endpoint: mean survival time, dose: 100.0 mg/kg/injection, schedule: Q01DX009 (ip), vehicle: carboxymethylcellulose (CMC) 95 % of control and 103 % of control | endpoint: mean survival time, dose: 100.0 mg/kg/injection, schedule: Q04DX002 (ip), vehicle: carboxymethylcellulose (CMC) 102 % of control and 105 % of control | endpoint: mean survival time, dose: 100.0 mg/kg/injection, schedule: Q04DX003 (ip), vehicle: carboxymethylcellulose (CMC) 103 % of control | [2] 112 % of control | endpoint: mean survival time, dose: 200.0 mg/kg/injection, schedule: Q01DX009 (ip), vehicle: carboxymethylcellulose (CMC) 98 % of control and 106 % of control | endpoint: mean survival time, dose: 200.0 mg/kg/injection, schedule: Q04DX002 (ip), vehicle: carboxymethylcellulose (CMC) 97 % of control and 102 % of control | endpoint: mean survival time, dose: 200.0 mg/kg/injection, schedule: Q04DX003 (ip), vehicle: carboxymethylcellulose (CMC) 97 % of control | [3] 100 % of control | endpoint: mean survival time, dose: 400.0 mg/kg/injection, schedule: Q01DX009 (ip), vehicle: carboxymethylcellulose (CMC) 98 % of control and 101 % of control | endpoint: mean survival time, dose: 400.0 mg/kg/injection, schedule: Q04DX002 (ip), vehicle: carboxymethylcellulose (CMC) 96 % of control and 97 % of control | endpoint: mean survival time, dose: 400.0 mg/kg/injection, schedule: Q04DX003 (ip), vehicle: carboxymethylcellulose (CMC) 102 % of control

Nc1c(F)c(N)c(F)c(F)c1F
inactive: endpoint: mean survival time, dose: 5.0 mg/kg/injection, schedule: Q01DX001 (ip), vehicle: acetone 98 % of control | endpoint: mean survival time, dose: 10.0 mg/kg/injection, schedule: Q01DX001 (ip), vehicle: acetone 121 % of control | endpoint: mean survival time, dose: 20.0 mg/kg/injection, schedule: Q01DX001 (ip), vehicle: acetone 107 % of control | endpoint: mean survival time, dose: 20.0 mg/kg/injection, schedule: Q04DX002 (ip), vehicle: saline with Tween-80 106 % of control and 115 % of control | endpoint: mean survival time, dose: 40.0 mg/kg/injection, schedule: Q01DX001 (ip), vehicle: acetone 106 % of control | endpoint: mean survival time, dose: 40.0 mg/kg/injection, schedule: Q04DX002 (ip), vehicle: saline with Tween-80 95 % of control and 105 % of control | endpoint: mean survival time, dose: 80.0 mg/kg/injection, schedule: Q01DX001 (ip), vehicle: acetone 101 % of control | endpoint: mean survival time, dose: 80.0 mg/kg/injection, schedule: Q04DX002 (ip), vehicle: saline with Tween-80 98 % of control and 114 % of control

O=C(C1=NNC(c2ccccc2)C1C(=O)c1ccccc1)c1ccccc1 (centres undefined)
inactive: endpoint: mean survival time, dose: 100.0 mg/kg/injection, schedule: Q01DX001 (ip), vehicle: steriod suspending solution 93 % of control | endpoint: mean survival time, dose: 200.0 mg/kg/injection, schedule: Q01DX001 (ip), vehicle: steriod suspending solution 110 % of control | endpoint: mean survival time, dose: 400.0 mg/kg/injection, schedule: Q01DX001 (ip), vehicle: steriod suspending solution 101 % of control

CC(=O)C(C(C)=O)C1C=CCC1 (centres undefined)
inactive: [4] 96 % of control | [5] 107 % of control | [6] 89 % of control

O=C(CC(=O)OCc1ccc([N+](=O)[O-])cc1)OCc1ccc([N+](=O)[O-])cc1
inactive: endpoint: mean survival time, dose: 25.0 mg/kg/injection, schedule: Q01DX001 (ip), vehicle: Klucel (hydroxypropylcellulose) (HPC) 104 % of control | endpoint: mean survival time, dose: 50.0 mg/kg/injection, schedule: Q01DX001 (ip), vehicle: Klucel (hydroxypropylcellulose) (HPC) 95 % of control | [7] 92 % of control

NCCCC(=O)NC(Cc1cnc[nH]1)C(=O)O (centres undefined)
inactive: [8] 95 % of control | [9] 97 % of control | [10] 92 % of control

CO[C@H]1C[C@H](O[C@H]2CC[C@]3(C=O)[C@H]4CC[C@]5(C)[C@@H](C6=CC(=O)OC6)CC[C@]5(O)[C@@H]4CC[C@]3(O)C2)O[C@H](C)[C@H]1O[C@@H]1O[C@H](CO)[C@@H](O)[C@H](O)[C@H]1O
inactive: endpoint: mean survival time, dose: 0.25 mg/kg/injection, schedule: Q01DX015 (ip), vehicle: carboxymethylcellulose (CMC) 88 % of control | endpoint: mean survival time, dose: 0.5 mg/kg/injection, schedule: Q01DX001 (ip), vehicle: saline 100 % of control | endpoint: mean survival time, dose: 0.5 mg/kg/injection, schedule: Q01DX015 (ip), vehicle: carboxymethylcellulose (CMC) 113 % of control | endpoint: mean survival time, dose: 0.5 mg/kg/injection, schedule: Q04DX003 (ip), vehicle: saline 100 % of control | endpoint: mean survival time, dose: 1.0 mg/kg/injection, schedule: Q01DX015 (ip), vehicle: carboxymethylcellulose (CMC) 89 % of control | endpoint: mean survival time, dose: 1.0 mg/kg/injection, schedule: Q04DX003 (ip), vehicle: saline 103 % of control | endpoint: mean survival time, dose: 2.0 mg/kg/injection, schedule: Q01DX015 (ip), vehicle: carboxymethylcellulose (CMC) 97 % of control | endpoint: mean survival time, dose: 4.0 mg/kg/injection, schedule: Q01DX001 (ip), vehicle: saline 98 % of control | endpoint: median survival time, dose: 0.5 mg/kg/injection, schedule: Q01DX005 (ip), vehicle: water 104 % of control | endpoint: median survival time, dose: 1.0 mg/kg/injection, schedule: Q01DX005 (ip), vehicle: water 103 % of control | endpoint: median survival time, dose: 2.0 mg/kg/injection, schedule: Q01DX005 (ip), vehicle: water 106 % of control

CCN(CC)CC(=O)NCC(CCN1CCOCC1)c1cccc2ccccc12 (centres undefined)
inactive: endpoint: mean survival time, dose: 100.0 mg/kg/injection, schedule: Q04DX003 (ip), vehicle: saline 96 % of control | endpoint: mean survival time, dose: 200.0 mg/kg/injection, schedule: Q04DX003 (ip), vehicle: saline 100 % of control | endpoint: mean survival time, dose: 400.0 mg/kg/injection, schedule: Q04DX003 (ip), vehicle: saline 93 % of control

Nc1ccc(OCC(=O)Nc2ccc(S(=O)(=O)F)cc2)cc1
inactive: [8] 101 % of control | [9] 103 % of control

Cc1ccc(S(=O)(=O)NCCCCCC(=O)O)cc1
inactive: endpoint: mean survival time, dose: 100.0 mg/kg/injection, schedule: Q01DX009 (ip), vehicle: Klucel (hydroxypropylcellulose) (HPC) 101 % of control | [11] 98 % of control | endpoint: mean survival time, dose: 200.0 mg/kg/injection, schedule: Q01DX009 (ip), vehicle: Klucel (hydroxypropylcellulose) (HPC) 101 % of control | [12] 94 % of control | endpoint: mean survival time, dose: 400.0 mg/kg/injection, schedule: Q01DX009 (ip), vehicle: Klucel (hydroxypropylcellulose) (HPC) 100 % of control | endpoint: mean survival time, dose: 400.0 mg/kg/injection, schedule: Q04DX003 (ip), vehicle: Klucel (hydroxypropylcellulose) (HPC) 96 % of control

Cc1ccc(Cl)cc1NC(=O)COc1ccc(Cl)cc1Cl
inactive: [13] 96 % of control | [4] 107 % of control | [14] 93 % of control | [5] 93 % of control | [15] 93 % of control | [6] 98 % of control

CNC(=O)c1cnc(SC)nc1N
inactive: endpoint: mean survival time, dose: 50.0 mg/kg/injection, schedule: Q04DX003 (ip), vehicle: Klucel (hydroxypropylcellulose) (HPC) 103 % of control | [7] 103 % of control | [11] 101 % of control | endpoint: mean survival time, dose: 200.0 mg/kg/injection, schedule: Q01DX001 (ip), vehicle: Klucel (hydroxypropylcellulose) (HPC) 100 % of control | [12] 111 % of control

O=[N+]([O-])c1cccc(-[n+]2cc([O-])on2)c1
inactive: endpoint: mean survival time, dose: 50.0 mg/kg/injection, schedule: Q01DX009 (ip), vehicle: Klucel (hydroxypropylcellulose) (HPC) 94 % of control | [11] 105 % of control | [12] 96 % of control

CCCC(F)C(=O)OCC (centres undefined)
inactive: [13] 108 % of control | [4] 98 % of control | [14] 94 % of control | [5] 96 % of control | [15] 87 % of control | [6] 106 % of control

O=[N+]([O-])c1cccc(P(=O)(O)O)c1
inactive: [16] 115 % of control | [8] 107 % of control | [9] 97 % of control | [10] 103 % of control

CC(=O)OC(C(C)=O)c1ccccc1 (centres undefined)
inactive: [16] 101 % of control | [8] 101 % of control | [9] 98 % of control | [10] 101 % of control

Cc1ccc(COC(=O)Nc2ccc(Cl)c([N+](=O)[O-])c2)cc1
inactive: [13] 92 % of control | [4] 102 % of control | [14] 100 % of control | [5] 100 % of control | [15] 95 % of control | [6] 100 % of control

CCCCOP(=O)(/C=C/c1ccc([N+](=O)[O-])cc1)OCCCC
inactive: endpoint: mean survival time, dose: 100.0 mg/kg/injection, schedule: Q04DX002 (ip), vehicle: Klucel (hydroxypropylcellulose) (HPC) 97 % of control | endpoint: mean survival time, dose: 200.0 mg/kg/injection, schedule: Q04DX002 (ip), vehicle: Klucel (hydroxypropylcellulose) (HPC) 93 % of control | endpoint: mean survival time, dose: 400.0 mg/kg/injection, schedule: Q04DX002 (ip), vehicle: Klucel (hydroxypropylcellulose) (HPC) 108 % of control

O=S(=O)(NCCCl)c1cc(Cl)c(Cl)cc1Cl
inactive: [1] 97 % of control | [2] 94 % of control | [3] 94 % of control
